Experimental data published in ChEMBL document CHEMBL3639112, “Modulators of calcium release-activated calcium channel and methods for treatment of non-small cell lung cancer” (2015).

Target: Calcium release-activated calcium channel protein 1 (Homo sapiens, UniProt Q96D31)
Test: Inhibition Assay: Inhibition of CRAC channels was determined following thapsigargin (Sigma, Cat # T9033) induced endoplasmic calcium release in Jurkat cells. (see Yasurio Yonetoky et. al Bio. & Med. Chem. 14 (2006) 4750-4760). Cells were centrifuged and resuspended in equal volumes f Ca2+ and Mg2+ free Hanks buffer and Fluo-8 NW dye (ABD Bioquest, Inc., Sunnyvale, Calif.) loading solution at 2x10^5 cells/100 ul/well in 96-well black plate. Plate is incubated at 37 C./5% CO2 […] followed by further […] at room temperature. Test compounds (DMSO stocks diluted in Ca2+ and Mg2+ free Hanks buffer) at desired concentrations were added to the wells and […]. Thapsigargin (1 uM final concentration) was added to the wells and incubated for 15 min to inhibit the Sarco-endoplasmic reticulum Ca2+ ATPase pump thereby depleting endoplasmic calcium and raising cytosolic calcium concentrations. Store-operated calcium entry was initiated by adding extracellular Ca2+.
Assay type: cell-based

Chain of Calcium release-activated calcium channel protein 1 (Q96D31 whole entry): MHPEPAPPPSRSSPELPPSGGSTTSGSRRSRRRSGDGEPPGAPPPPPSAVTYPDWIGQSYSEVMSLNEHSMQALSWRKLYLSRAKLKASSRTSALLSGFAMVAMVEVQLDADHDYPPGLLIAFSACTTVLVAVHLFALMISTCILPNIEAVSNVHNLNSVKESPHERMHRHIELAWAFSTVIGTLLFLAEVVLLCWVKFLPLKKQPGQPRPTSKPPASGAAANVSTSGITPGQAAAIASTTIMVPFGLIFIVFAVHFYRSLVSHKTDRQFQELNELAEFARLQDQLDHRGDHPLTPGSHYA

Row | IC50 [nM] | SMILES
1 | 147 | O=C(Cc1ccc2ncccc2c1)Nc1ccc(-n2nc(C3CC3)cc2C2CC2)cc1
2 | 86.1 | O=C(Nc1ccc(-n2nc(C(F)(F)F)cc2C2CC2)cc1)c1ccc2ncccc2c1
